Each compound was assayed against T1, human plasma renin (Homo sapiens, UniProt P00797) (assay: Inhibiting effect to human plasma renin). Conditions: angiotensin I formation by radio-immunoassay, 37° C., 2 hours, pH4.6, read-out: IC50 /human plasma (50% inhibiting concentration).
T1 construct: Into human plasma; from tissue; host or cells: human plasma
T1 sequence (P00797 67-406): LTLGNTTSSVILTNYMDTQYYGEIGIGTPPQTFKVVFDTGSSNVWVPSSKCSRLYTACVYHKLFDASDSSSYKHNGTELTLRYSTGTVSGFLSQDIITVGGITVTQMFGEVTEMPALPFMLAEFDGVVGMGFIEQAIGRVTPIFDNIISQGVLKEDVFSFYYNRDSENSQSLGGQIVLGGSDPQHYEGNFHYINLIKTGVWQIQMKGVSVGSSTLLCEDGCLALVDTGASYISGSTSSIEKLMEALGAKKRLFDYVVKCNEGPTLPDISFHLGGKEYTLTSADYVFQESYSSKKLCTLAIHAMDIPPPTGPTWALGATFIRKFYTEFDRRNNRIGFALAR
Assay type: biochemical
Experimental: (1) Inhibiting effect to human plasma renin.
Into human plasma (250 μl) having 0.5 ng/ml/hr (37° C.)-angiotensin I forming activity was added 225 μl of an enzyme-inhibitor (BAL, […], pH4.6) and 25 μl of a solution of the test compound in dimethylsulfoxide, and the mixture was stirred. Some portion of the stirred mixture was subjected to incubation at 37° C. for 2 hours, and the rest of the mixture was left at 4° C. Taking 100 μl of each of the mixtures, by measuring the difference of the angiotensin I forming amount by radio-immunoassay at 37° C. and 4° C., the 50% inhibiting concentration IC50 (M) was calculated.
`Cn1nnnc1SCC(O)[C@H](CC1CCCCC1)NC(=O)[C@H](Cc1cnc[nH]1)NC(=O)C(CC(=O)N1CCOCC1)Cc1cccc2ccccc12` (stereo partly drawn) [Example 7, (2RS,3S)-3-[N-[1,4-dioxo-4-morpholino-2-(1-naphthylmethyl)butyl-L-histidylamino)]-4-cyclohexyl-1-(1-methyl-5-tetrazolylthio]-2-butanol] gave an IC50 of 0.5 nM.
With `Cn1nnnc1SCC(O)[C@H](CC1CCCCC1)NC(=O)[C@H](Cc1cnc[nH]1)NC(=O)[C@H](Cc1ccccc1)NC(=O)OC(C)(C)C` (stereo partly drawn) [Example 9] the IC50 was 4 nM.
In the case of `CC(C)OC(=O)C(O)[C@H](CC1CCCCC1)NC(=O)[C@H](Cc1c[nH]cn1)NC(=O)C(CC(=O)N1CCOCC1)Cc1cccc2ccccc12` (stereo partly drawn) [Example 40], the IC50 is reported as 4 nM.
